Laboratory results taken from patent publication US12649750B2, “Macrocyclic compounds, compositions, and methods of using thereof” (Sionna Therapeutics Inc., priority 2022, dated 2026).

How the values were obtained:
CFTR = target: T1, CFTR (Homo sapiens, UniProt P13569, DEL508-508); experiment: TECC24 AUC fold over DMSO @10 μM, CFTR-mediated transepithelial chloride transport in CF-HBE cells; type: cell-based; conditions: test agent AUC divided by DMSO vehicle AUC, primary CF-HBE cells, ΔF508 homozygous donor, 48 hours incubation
T1 construct: Primary human bronchial epithelial cells from a ΔF508 homozygous CF donor; host or cells: primary human bronchial epithelial cells (CF-HBE), ΔF508 homozygous donor
T1 sequence (P13569 with tags, fused parts or gaps DEL508-508): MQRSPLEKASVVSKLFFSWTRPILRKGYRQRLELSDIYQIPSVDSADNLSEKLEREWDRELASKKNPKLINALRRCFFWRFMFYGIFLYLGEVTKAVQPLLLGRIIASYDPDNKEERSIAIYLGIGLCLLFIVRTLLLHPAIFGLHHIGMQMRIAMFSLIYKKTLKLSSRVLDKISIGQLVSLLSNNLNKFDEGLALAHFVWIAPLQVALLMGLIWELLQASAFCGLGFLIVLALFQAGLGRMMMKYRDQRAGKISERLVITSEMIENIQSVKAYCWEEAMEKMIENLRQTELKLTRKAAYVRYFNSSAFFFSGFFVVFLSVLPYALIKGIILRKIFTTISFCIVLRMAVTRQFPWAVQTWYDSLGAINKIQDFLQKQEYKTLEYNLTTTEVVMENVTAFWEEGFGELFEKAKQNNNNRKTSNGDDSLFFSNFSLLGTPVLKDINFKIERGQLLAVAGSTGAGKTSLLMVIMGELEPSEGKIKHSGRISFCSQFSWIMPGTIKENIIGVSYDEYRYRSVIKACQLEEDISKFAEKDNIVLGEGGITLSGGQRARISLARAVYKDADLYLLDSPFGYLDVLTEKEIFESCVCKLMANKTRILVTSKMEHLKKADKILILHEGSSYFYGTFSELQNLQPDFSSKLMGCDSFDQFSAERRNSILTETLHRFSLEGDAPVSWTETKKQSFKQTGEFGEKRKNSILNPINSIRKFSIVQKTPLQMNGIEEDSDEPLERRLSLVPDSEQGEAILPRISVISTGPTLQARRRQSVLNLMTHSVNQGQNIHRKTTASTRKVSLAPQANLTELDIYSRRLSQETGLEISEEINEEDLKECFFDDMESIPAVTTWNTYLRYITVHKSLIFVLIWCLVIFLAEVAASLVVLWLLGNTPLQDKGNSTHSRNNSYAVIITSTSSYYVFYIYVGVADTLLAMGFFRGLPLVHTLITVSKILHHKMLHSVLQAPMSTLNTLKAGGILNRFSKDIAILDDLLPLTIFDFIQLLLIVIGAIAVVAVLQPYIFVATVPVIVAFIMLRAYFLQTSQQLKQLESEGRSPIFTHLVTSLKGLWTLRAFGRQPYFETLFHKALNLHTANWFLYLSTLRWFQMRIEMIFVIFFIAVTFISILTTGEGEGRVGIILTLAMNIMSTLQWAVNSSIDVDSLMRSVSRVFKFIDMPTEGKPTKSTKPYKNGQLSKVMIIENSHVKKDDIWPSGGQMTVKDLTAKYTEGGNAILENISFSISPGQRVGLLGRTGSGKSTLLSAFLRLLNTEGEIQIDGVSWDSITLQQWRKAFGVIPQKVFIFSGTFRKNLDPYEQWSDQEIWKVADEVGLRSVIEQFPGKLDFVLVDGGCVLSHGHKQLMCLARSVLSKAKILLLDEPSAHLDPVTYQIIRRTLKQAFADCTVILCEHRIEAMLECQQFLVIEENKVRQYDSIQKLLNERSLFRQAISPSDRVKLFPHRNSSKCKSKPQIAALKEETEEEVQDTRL
Procedure, shortened: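 ΔF508-homozygous primary bronchial epithelial cells incubated 48 h at 36.5° C with compound (10 μM) in IL-13-containing medium, then TECC24 current-clamp recording in pH 7.4 Hepes saline with benzamil 10 μM, forskolin 10 μM, then CFTR inhibitor-172 20 μM. Equivalent Cl− current AUC between forskolin and inhibitor, expressed as fold over DMSO.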

NBD1 = target: T2, NBD1 (Homo sapiens, UniProt P13569); experiment: Aggregation analysis using differential static light scattering (DSLS), thermal stability of NBD1 (ΔTagg); type: binding; conditions: ΔTagg versus DMSO control, NBD1 0.2 mg/ml
T2 construct: Purified recombinant NBD1 was produced using previously described methods; made in house
T2 sequence (P13569 423-646 limits assumed): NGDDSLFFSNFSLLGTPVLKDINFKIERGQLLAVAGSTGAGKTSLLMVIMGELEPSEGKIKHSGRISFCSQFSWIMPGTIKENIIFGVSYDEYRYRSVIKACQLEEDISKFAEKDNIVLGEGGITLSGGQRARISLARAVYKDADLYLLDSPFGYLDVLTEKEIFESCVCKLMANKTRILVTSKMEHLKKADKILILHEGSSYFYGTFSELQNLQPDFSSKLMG
Procedure, shortened: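 Purified recombinant NBD1 at 0.2 mg/ml in 50 mM Tris-HCl, 150 mM NaCl, 5 mM MgCl2, 2 mM ATP, 2 mM DTT, pH 7.6, 1% glycerol, with compound, heated 1° C./min to 70° C. under light-scattering monitoring. Tagg taken at curve inflection; ΔTagg is compound Tagg minus mean DMSO-control Tagg, binned A (≤5° C.), B (>5-≤10° C.), C (>10-≤25° C.).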

Row | SMILES | TECC (AUC, 10 μM) (CFTR) | DSLS 3D (100 μM ΔT) (NBD1)
1 | CC1(C)CCCC(c2cccc(CCC(=O)O)c2)n2ncc(Cl)c2-c2cc(ccc2F)Oc2c(F)cc3[nH]ccc3c2CCS(=O)(=O)C1 (stereo not drawn) [Compound 71, 3-[3-(3-Chloro-23,29-difluoro-11,11-dimethyl-13,13-dioxo-25-oxa-13λ6-thia-5,6,20-triazapentacyclo[24.3.1.02,6.016,24.017,21]triaconta-1(30),2,4,16,18,21,23,26,28-nonaen-7-yl)phenyl]propanoic Acid] | A (a TECC value less than 12 is marked “A”) | C (a value greater than 10 °C and less than or equal to 25 °C is marked “C”)
2 | CC(C)n1nc2nc1C(C)(c1cccc(CCC(=O)O)c1)CCCC(C)(C)CS(=O)(=O)CCc1c(c(F)cc3[nH]ccc13)Oc1ccc(F)c-2c1 (stereo not drawn) [Compound 74, 3-[3-(22,28-Difluoro-4-isopropyl-6,10,10-trimethyl-12,12-dioxo-24-oxa-12λ6-thia-3,4,19,30-tetrazapentacyclo-[23.3.1.12,5.015,23.016,20]triaconta-1(29),2,5(30),15,17,20,22,25,27-nonaen-6-yl)phenyl]propanoic acid] | A (a TECC value less than 12 is marked “A”) | C (a value greater than 10 °C and less than or equal to 25 °C is marked “C”)
3 | CC(C)n1nc2nc1-c1cc(ccc1F)Oc1c(F)cc3[nH]ccc3c1CCS(=O)(=O)CC(C)(C)CCCC2(C)c1cccc(CCC(=O)O)c1 (stereo not drawn) [Compound 75, 3-[3-(22,28-difluoro-3-isopropyl-6,10,10-trimethyl-12,12-dioxo-24-oxa-12λ6-thia-3,4,19,30-tetrazapentacyclo-[23.3.1.12,5.015,23.016,20]triaconta-1(29),2(30),4,15,17,20,22,25,27-nonaen-6-yl)phenyl]propanoic Acid] | A (a TECC value less than 12 is marked “A”) | C (a value greater than 10 °C and less than or equal to 25 °C is marked “C”)
4 | Cc1cn2nc1-c1cc(ccc1F)Oc1c(F)cc3[nH]ccc3c1CCS(=O)(=O)CC(C)(C)COCCC2c1cccc(CCC(=O)O)c1 (stereo not drawn) [Compound 76, 3-[3-(23,29-Difluoro-3,11,11-trimethyl-13,13-dioxo-9,25-dioxa-13λ6-thia-5,20,31-triazapentacyclo[24.3.1.12,5.016,24.017,21]hentriaconta-1(30),2(31),3,16,18,21,23,26,28-nonaen-6-yl)phenyl]propanoic Acid] | A (a TECC value less than 12 is marked “A”) | C (a value greater than 10 °C and less than or equal to 25 °C is marked “C”)
5 | Cn1cc2nc1-c1cc(ccc1F)Oc1c(F)cc3[nH]ccc3c1CCS(=O)(=O)CC(C)(C)CCCC2(C)c1cccc(CCC(=O)O)c1 (stereo not drawn) [Compound 77, 3-[3-(22,28-Difluoro-3,6,10,10-tetramethyl-12,12-dioxo-24-oxa-12λ6-thia-3,19,30-triazapentacyclo[23.3.1.12,5.015,23.016,20]triaconta-1(29),2(30),4,15,17,20,22,25,27-nonaen-6-yl)phenyl]propanoic Acid] | A (a TECC value less than 12 is marked “A”) | C (a value greater than 10 °C and less than or equal to 25 °C is marked “C”)
6 | Cn1nc2nc1-c1cc(ccc1F)Oc1c(F)cc3[nH]ccc3c1CCS(=O)(=O)CC(C)(C)OCCC2(C)c1cccc(CCO)c1 (stereo not drawn) [Compound 78, 2-[3-(22,28-Difluoro-3,6,10,10-tetramethyl-12,12-dioxo-9,24-dioxa-12lambda6-thia-3,4,19,30-tetrazapentacyclo-[23.3.1.12,5.015,23.016,20]triaconta-1(29),2(30),4,15,17,20,22,25,27-nonaen-6-yl)phenyl]-ethanol] | A (a TECC value less than 12 is marked “A”) | B (a value above 5 °C and less than or equal to 10 °C is marked “B”)
